Tests used:
[1] = molecular target: Cytochrome P450 3A4 (Homo sapiens, UniProt P08684); assay: Cytochrome P450 inhibition, 3A4; type: in vitro ADME
[2] = tested on: field potentials in frontal cortical slices; assay: Electrophysiology: field potentials in frontal cortical slices, WILD mice; design: species or system C57BL/6J WT mice; conditions: for Before-after effect of the drug on FP amplitude: WILD group; for S (factor proportional to the slope of the curve) / Uh (stimulation intensity evoking FP of half-maximum amplitude) / Vmax (maximum FP amplitude, Boltzmann fit): slices from WILD mice, after 20 min drug superfusion
Text: Mice (wild and KO, approx. 25 g) were housed under a controlled light/dark cycle (light on: 0700–1900) and had free access to standard food and tap water. Mice were anesthetized with isoflurane (Aerrane, Baxter) decapitated, their brains were dissected and immersed in an ice-cold artificial cerebrospinal fluid (ACSF) of the following composition (in mM): NaCl (130), KCl (5), CaCl2 (2.5), MgSO4 (1.3), KH2PO4 (1.25), NaHCO3 (26), and glucose (10), bubbled with a mixture of 95% O2/5% CO2 to pH 7.4. Frontal cortical slices (bregma 1.9–1.4, 380 μm) were cut in a coronal plane using a vibrating microtome and they were stored at 32°C. A single slice was next transferred to the recording chamber (32°C ± 0.5°C) and superfused at 2.5 ml/min with a ACSF.
A bipolar stimulating electrode (FHC) was placed approx. 2 mm lateral to the midline and approx. 1.0 mm below the pial surface (in layer V) (Figure 1). Stimuli (duration: 0.2 ms) were applied at 0.033 Hz using a constant-current stimulus isolation unit (WPI). Field potentials (FPs) were recorded using glass micropipettes filled with ACSF (1–3 MΩ), which were placed approx. 0.2 mm below the cortical surface (in layer II/III). FPs were amplified (Axoprobe 1A, Axon Instruments), A/D converted at 10 kHz and stored using Micro1401 interface and Signal 4 software (CED).
The stimulus–response curves obtained for each slice were fit with the Boltzmann equation: Vi = Vmax/(1 + exp[(u - Uh)/-S]), where Vmax is the maximum FP amplitude; u is the stimulation intensity; Uh is the stimulation intensity evoking FP of half-maximum amplitude; S is the factor proportional to the slope of the curve; “exp” is exponentiation – mathematical operation. The results are expressed as the means ± SEM. Statistical analyses were carried out using t-test ([Tokarski et al., 2011]).
For each slice, at the beginning of the experiment an input-output curve was generated in ACSF. A stimulus-response (input-output) curve was made for each slice. […] One response was recorded at each stimulation intensity. […] Statistical analyzes were carried out using paired t-test and ANOVA.

[3] = tested on: MK-801-induced deficits in the NOR test; assay: Novel object recognition test (MK-801-induced deficits); type: in vivo, Albino Swiss mice; conditions: 30 min before MK-801 (0.3 mg/kg), mice
Experimental: The experiment was performed according to [Nilsson et al., 2007] with minor modifications ([Woźniak et al., 2016b]). Following a 2-day habituation period (10 min/day), a training trial was performed, where mice were allowed to explore two identical objects for 5 min. About 1 h later, a test trial was conducted, where one of the familiar object was replaced by a novel object. The animals were then allowed to explore the objects for 5 min. […] Time spend exploring (i.e., sniffing or touching) the familiar (Tfamiliar) or novel object (Tnovel) was measured by a trained observer and then the recognition index was calculated for each mouse [(Tnovel - Tfamiliar)/(Tfamiliar + Tnovel)] × 100.

[4] = tested on: prepulse-induced inhibition of the acoustic startle response; assay: Prepulse inhibition of the acoustic startle response; type: in vivo, Wistar rats; conditions: rats; for Effect on MK-801-induced disruption of prepulse inhibition: 30 min prior to MK-801 (0.3 mg/kg)
Experimental: The procedure was performed according to [Czyrak et al., 2003]. On the day before the experiment, the animals were subjected to a single startle session consisting of two trials, each presented 20 times during the session. During the first trial, a 120 dB, 40 ms pulse was presented, and on the second trial this pulse was preceded by a 75 dB, 20 ms prepulse. On the day of the experiment, the animals were habituated to the background white noise (65 dB) for 5 min (which continued throughout the test), after that the startle session was carried out as described above. Startle response amplitude was defined as the difference between the maximum force detected during a recording window and the force measured immediately before the stimulus onset (the threshold was set at 10 g). For each animal, the amplitudes were averaged separately for each type of trial. The PPI was calculated as the difference between the amplitudes of the pulse (P) and the prepulse + pulse (PP+P), divided by the amplitude of the pulse alone [([P - (PP + P)]/P)×100].

[5] = tested on: amphetamine-induced hyperactivity; design: method as in Kalinichev et al., 2013; conditions: 100 and 150 mg/kg, subcutaneous; ref Kalinichev et al., 2013; cited from earlier work
[6] = tested on: MK-801-induced increase in immobility time; assay: Modified forced swim test after chronic MK-801; type: in vivo, Albino Swiss mice; conditions: chronic (13 days) MK-801 0.4 mg/kg, mice
Experimental: The modified forced swim test was performed according to the method introduced by Noda ([Noda et al., 1995], [1997]; [Wierońska et al., 2015a]; [Woźniak et al., 2016a]). The swim tests were performed in a glass cylinder (height, 20 cm; internal diameter, 15 cm) containing 11 cm of water maintained at 23–24°C. After the acclimation period, the animals underwent the first swim test, where the immobility time was measured during a 3 min period (T1). On the next day, chronic (13 days) MK-801 administration (0.4 mg/kg, i.p.) was started. After a 1-day break, on the 15th day of experiment, the second swim session was performed and the immobility time during 3-min test was measured again (T2). The T2 - T1 difference was reported as the result of the experiment.

Cytochrome P450 3A4, sequence (P08684 whole entry, the tested form may be a part): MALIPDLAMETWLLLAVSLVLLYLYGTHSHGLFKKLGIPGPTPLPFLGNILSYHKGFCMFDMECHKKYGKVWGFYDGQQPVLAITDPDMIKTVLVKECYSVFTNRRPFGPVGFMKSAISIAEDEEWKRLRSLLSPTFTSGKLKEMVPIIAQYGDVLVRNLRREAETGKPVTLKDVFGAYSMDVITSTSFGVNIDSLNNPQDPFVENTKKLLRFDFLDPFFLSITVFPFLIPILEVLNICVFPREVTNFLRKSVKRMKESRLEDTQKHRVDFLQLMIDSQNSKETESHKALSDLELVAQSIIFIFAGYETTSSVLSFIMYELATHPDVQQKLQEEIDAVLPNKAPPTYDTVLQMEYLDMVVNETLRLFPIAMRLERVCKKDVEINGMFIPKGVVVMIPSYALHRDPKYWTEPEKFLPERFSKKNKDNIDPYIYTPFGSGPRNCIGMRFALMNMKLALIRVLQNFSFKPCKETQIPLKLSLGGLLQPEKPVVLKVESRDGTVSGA

Row | Compound | IC50 [1] [µM] | Before-after effect of the drug on FP amplitude [2] [%] | S (factor proportional to the slope of the curve) [2] | Uh (stimulation intensity evoking FP of half-maximum amplitude) [2] | Vmax (maximum FP amplitude, Boltzmann fit) [2] | Effect on MK-801-induced reduction of recognition index (NOR) ([3]; 1 mg/kg i.p.) | Effect on MK-801-induced reduction of recognition index (NOR) ([3]; 5 mg/kg i.p.) | Effect on MK-801-induced reduction of recognition index (NOR) ([3]; 15 mg/kg i.p.) | Effect on MK-801-induced disruption of prepulse inhibition ([4]; 2.5 mg/kg) | Activity in amphetamine-induced hyperactivity [5] | Before-after effect, WILD group higher than KO animals ([2]; WILD vs. KO) | Effect on MK-801-induced increase in immobility time (modified forced swim test) ([6]; 1 mg/kg i.p. acutely 30 min before T2) | Effect on MK-801-induced increase in immobility time (modified forced swim test) ([6]; 15 mg/kg i.p. acutely 30 min before T2) | Prepulse-induced inhibition of the acoustic startle response, drug given alone ([4]; 10 mg/kg given alone, effect not statistically significant) | Effect on MK-801-induced disruption of prepulse inhibition ([4]; all doses (5, 10, and 15 mg/kg))
1 | CCc1nc2c(o1)CC(c1ccc(C)cc1C)CC2=O (stereo not shown) [ADX71743, 6-(2,4-Dimethylphenyl)-2-ethyl-6,7-dihydro-4(5H)-benzoxazolone] | > 10 | 116 | 6.53 ± 0.3 | 26.07 ± 1.3 | 2.531 ± 0.1^∗∗∗ | significant reversal of MK-801-induced effect | significant reversal of MK-801-induced effect | significant reversal of MK-801-induced effect | inhibited MK-801-induced disruption in PPI | active |  |  |  |  | 
2 | COc1ccc(-c2cc3onc(-c4ccncc4)c3c(=O)n2C)cc1 [MMPIP, 6-(4-Methoxyphenyl)-5-methyl-3-(4-pyridinyl)-isoxazolo(4,5-c)pyridin-4(5H)-one] |  | 123 | 9.37 ± 0.83 | 26.93 ± 1.6 | 2.53 ± 0.3^∗∗∗ |  |  |  |  |  | about 23% | significant reversal of MK-801-induced effect | significant reversal of MK-801-induced effect | 137 % of control | not antagonized

Source: publication PMC6158327, “Negative Allosteric Modulators of mGlu7 Receptor as Putative Antipsychotic Drugs” (Frontiers in Molecular Neuroscience, 2018)
